{
  "source": "patent US20240209353A1",
  "about": "“NADK2 INHIBITION IN CANCER AND FIBROTIC DISORDERS” (Memorial Sloan-Kettering Cancer Center, priority 2021, published 2024)",
  "key": {"[1]": {"system": "DLD1, T47D and HaCaT cells", "assay": "Western blot: GSH synthesis enzymes, peroxiredoxin oxidation", "format": "cell-based, human", "conditions": "100 μM MitoPQ, 24 hours; similar extent in cells lacking NADK2 and control cells", "excerpt": "Protein was then transferred to nitrocellulose membrane for immunoblotting."}, "DLD1 and T47D cells": {"system": "DLD1 and T47D cells", "assay": "Cell death quantification (ferroptosis sensitivity)", "format": "cell-based", "method": "Cells were seeded in 96-well plates at appropriate cell densities (DLD1: 10000 cells/well, T47D: 15000 cells/well), and incubated overnight at 37° C. containing 5% CO2. Contact-inhibited MEFs were seeded in 24-well plates and incubated as described above. Cell were then subjected to treatments as described in figures. Cells were stained with Hoechst 33342 (0.1 μg/ml) to monitor total cell number, and with Sytox Green (5 nM) to monitor cell death. Culture plates were read by Cytation 5 at indicated time point. Percentage of cell death was calculated as Sytox Green-positive cell number over total cell number."}, "[2]": {"system": "T47D, MCF10A, HaCaT and DLD1 cells", "assay": "Cell proliferation (cell number fold change)", "format": "cell-based, human", "conditions": "supplements at concentrations present in DMEM/F12", "method": "FIGS. 3A-3B show cell proliferation measured as cell number fold change (Day 4/Day 0) of T47D cells treated with sgCtrl, sgNADK2-1, or sgNADK2-2, cultured in the indicated medium and supplementation. “LA” is lipoic acid. “Pyr” is pyruvate. “Cu” is cupric sulfate. “Zn” is zinc sulfate. “B12” is vitamin B12. “A” is alanine. “D” is aspartate. “N” is asparagine. “E” is glutamate, and “P” is proline. All supplements were added at the concentrations present in DMEM/F12. […] FIGS. 3D-3F show a Western blot (FIG. 3D), proline abundance measured by GC-MS (FIG. 3E), and cell proliferation (FIG. 3F) of DMEM-cultured T47D cells treated with sgCtrl or sgNADK2-2 and ectopically expressing vector or NADK2 cDNA resistant to sgNADK2-2 mediated CRISPR-Cas9 genome editing. FIGS. 3G-3I show a Western blot (FIG. 3G), proline abundance measured by GC-MS (FIG. 3H), and cell proliferation (FIG. 3I) of DMEM-cultured T47D cells treated with sgCtrl, sgNADK2-1, or sgNADK2-2 and ectopically expressing vector or the POS5 cDNA. All error bars represent mean+SD, n=3. In FIGS. 3A-3C, 3H, and 3I, one-way ANOVA was performed. In FIGS. 3E and 3F, a two-sided t-test was performed with Welch's correction. ** P<0.01; *** P<0.001; n.s., P>0.05.\nFIGS. 8D-8H show cell proliferation measured as cell number fold change of the indicated cells with sgCtrl, sgNADK2-1, or sgNADK2-2, cultured in the indicated medium and supplementation. […]"}, "MEFs [3]": {"system": "MEFs", "conditions": "proline supplementation to the medium", "protocol": "In brief, confluent MEFs were grown for two days on plates coated with 0.1% gelatin in the presence of 50 μM ascorbate (Sigma, A4034) in the indicated medium. Plates were decellularized with 20 mM ammonium hydroxide/0.5% Triton X-100 for 5 min on a rotating platform. Three times the volume of PBS was added, and ECM was equilibrated overnight at 4° C., followed by four additional PBS washes. To measure collagen abundance, extracted ECM was stained with the Picro Sirius Red Stain Kit (Abcam, ab150681) according to the manufacturer's instructions. The stain was extracted with 0.1 M NaOH, and optical density was measured at 550 nm using a microplate reader. Values were normalized to the packed cell volume of cells grown on a separate plate under the same experimental conditions."}, "MEFs [4]": {"system": "MEFs", "conditions": "300 μM proline added to culture medium", "method": "(§1) Cells were lysed in RIPA lysis buffer (Millipore 20-188) supplemented with protease inhibitors (Thermo Fisher, 78428). Protein concentration was determined by BCA protein assay (Thermo Fisher, 23228), following which equal amount of protein was loaded and separated in polyacrylamide gels. Protein was then transferred to nitrocellulose membrane for immunoblotting."}, "NIH-3T3 cells": {"system": "NIH-3T3 cells", "conditions": "0.15 mM proline in culture medium", "method": "as §1"}},
  "note": "Like-named read-outs stand apart in the source and are kept apart here.",
  "data": [
    {"compound": "C[n+]1ccc(-c2cc[n+](CCCCCCCCCC[P+](c3ccccc3)(c3ccccc3)c3ccccc3)cc2)cc1.[I-].[I-].[I-]", "note": "[MitoParaquat]", "values": [
      {"measurement": "expression of enzymes involved in GSH synthesis", "setting": "[1]", "value": "increased"}
    ]},
    {"compound": "CCOc1ccccc1-n1c(C(C)N2CCN(C(=O)COc3ccc(Cl)cc3)CC2)nc2ccccc2c1=O", "note": "(centres unmarked) [Erastin]", "values": [
      {"measurement": "cell death of cells lacking NADK2 upon ferroptosis inducer", "setting": "DLD1 and T47D cells", "value": "no increase in cell death"}
    ]},
    {"compound": "O=C(O)[C@@H]1CCCN1", "note": "[proline, L-proline]", "values": [
      {"measurement": "growth of cells lacking NADK2 in DMEM upon supplementation", "setting": "[2]", "value": "necessary and sufficient to restore proliferation"},
      {"measurement": "collagen secretion of fibroblasts lacking NADK2 upon supplementation", "setting": "MEFs [3]", "value": "rescued"},
      {"measurement": "ATF4 accumulation in cells lacking NADK2", "setting": "MEFs [4]", "value": "blunted"},
      {"measurement": "collagen expression in cells lacking NADK2", "setting": "MEFs [4]", "value": "restored"},
      {"measurement": "expression of collagen protein in P5CS-deleted cells upon proline addition", "setting": "NIH-3T3 cells", "value": "restored"}
    ]},
    {"compound": "COC(=O)c1ccc([C@@H]2c3[nH]c4ccccc4c3C[C@@H](C(=O)OC)N2C(=O)CCl)cc1", "note": "[RSL3]", "values": [
      {"measurement": "cell death of cells lacking NADK2 upon ferroptosis inducer", "setting": "DLD1 and T47D cells; vs control cells, 24 or 48 hours", "value": "no increase in cell death"}
    ]}
  ]
}
